Reference: patent publication US20130191934A1, “TREATMENT OF SYMPTOMS ASSOCIATED WITH MENOPAUSE” (INDIANA UNIVERSITY RESEARCH AND TECHNOLOGY CORPORA, priority 2010, published 2013)
Entries after “also recorded” stand apart in the source; their conditions may differ.

Key:
[1] = under investigation for insomnia; cited from earlier work
ORX1 and ORX2 receptors = details: cited from earlier work
OVEX'ed rats = details: cited from earlier work; for anxiety behaviors in the elevated plus maze (EPM) and open field tests (OFT): OVEX'ed rats; for block of the anxiety induced by OVEXing a female rat: daily s.c.: E2 0.25 mg/kg, DPN 1.0 mg/kg, PPT 1.0 mg/kg, Walf et al., 2010
[2] = 30 mg/kg intraperitoneal; cited from earlier work
panic-prone rats = experiment: Sodium lactate challenge in panic-prone (l-allylglycine) rats; format: in vivo, rat; details: for anxiety-like responses (social interaction duration) after sodium lactate: 30 mg/kg i.p. before 15 min i.v. 0.5M sodium lactate, FIG. 1b; for lactate induced increases in core body temperature / lactate induced increases in heart rate: 30 mg/kg i.p.; for lactate induced increases in core body temperature: FIG. 1c; for lactate induced increases in heart rate: FIG. 1d
Excerpt: Panic disorder is associated with disruption of central inhibitory gamma-aminobutyric acid (GABAergic) tone, and may contribute to panic attacks which are consistently provoked by ordinarily mild physical stressors such as mild osmotic disturbances (e.g., intravenous sodium lactate challenges).
Orexin/hypocretin producing neurons are almost exclusive to dorsomedial hypothalamus and adjacent lateral hypothalamus, and play a critical role in maintaining wakefulness, vigilance and central sympathetic mobilization, which are key components of panic and anxiety. Experiments were conducted to investigate whether the administration of either a systemic orexin 1 antagonist or silencing the hypothalamic orexin gene product with RNA interference could block lactate-induced panic responses.

[3] = system: adult female rats (OVEX or tamoxifen); experiment: Open field anxiety test in tamoxifen-treated or ovariectomized female rats; format: in vivo, rat; details: for anxiety-like behavior (time spent in center of open field) in OVEX rats: 30 mg/kg i.p. 30 min prior to testing, OVEX female rats, FIG. 3B
Experimental: FIG. 3A & 3B are bar graphs showing the effects of subcutaneously injecting adult female rats with 3 days of vehicles (10% DMSO, 90% sesame oil) or 10 mg/kg tamaoxifen (a nonselective estrogen receptor antagonist) on time spent in the center of an open field. * represents p,0.05 with unpaired t-test. n=6/group. […] Bars represent mean and error bars represent SEM. * represents p,0.05 Mann Whitney U test following an ANOVA f(3,35)=2.9, p=0.048.
Furthermore, experiments were conducted to investigate the impact of lowering estrogen activity by either administering tamoxifen or ovariectomizing rats.

[4] = system: dorsomedial hypothalamus (DMH) of anesthetized rat; experiment: BMI microinjection into the DMH of anesthetized rats; format: in vivo; details: 30 mg/kg i.p.; BMI 20 pmol/50 nL into DMH; FIG. 2; listed as SB334861
Experimental: FIG. 2 Continuous and simultaneous measurement of blood pressure (top panel), heart rate (middle panel), and core body temperature (bottom panel) in an isoflurane anesthetized rat after identical microinjections of BMI (20 pmol/50 nL) into the DMH (time marks 1 and 3) before and after systemic administration of the orexin-1 receptor antagonist SB334861 (30 mg/kg i.p.; time mark 2).
As disclosed herein, experiments were conducted to determine whether an orexin-1 receptor antagonist (SB334861) or an orexin-2 receptor antagonist (TCSOX229) could attenuate the physiologic responses to chemical stimulation of the DMH. Chemical stimulation or disinhibition of neurons in the region of the dorsomedial hypothalamus (DMH) was conducted using the GABAA receptor antagonist bicuculline methiodide (BMI). To test orexin inhibitors ability to attenuate the BMI stimulated response, BMI was microinjected (20 pmol/50 nL) into the DMH of urethane-anesthetized rats both before and after systemic administration of the orexin inhibitor, and the responses were monitored.

[5] = system: female ovariectomized, or sham-OVEX control, rats; experiment: Hypercapnia (20% CO2) challenge, tail skin temperature in OVEX rats; format: in vivo, rat; details: 30 mg/kg pretreatment
Excerpt: Hypercapnia model: There is also evidence that altered respiration patterns may trigger hot flashes whereas paced respiration may alleviate hot flash incidence and intensity. Increased or decreased respiration activity alters blood CO2/pH levels, and a hypersensitivity to CO2/pH may be present in conditions where estrogen activity is very low.

menopausal women = details: cited from earlier work
ORX-ir neurons = experiment: c-Fos induction in ORX-ir neurons after yohimbine; format: in vivo, rat; details: 5 mg/kg i.p.; male rats; FIG. 5A
Excerpt: (§1) FIG. 5A & 5B are graphs showing the effects of yohimbine on cellular responses. […] Black and gray outlined bars respectively represent c-FOS/ORX double and total ORX-ir labeled neurons in the hypothalamus. *Mann-whiney U=1.5, p=0.001. […] Treatment by time effect F(89,267)=2.7, p<0.001.
(§2) Conversely, administering intravenous infusions of yohimbine (alpha2-adrenergic autoreceptor antagonist) to symptomatic, but not asymptomatic, menopausal women provokes “hot flashes” (Freedman et al, Obstet Gynecol, 1990. 76(4): p. 573-8). […] A dramatic drop in core body temp also immediately follows this, which also occurs in women following the onset of a hot flash.

[6] = system: female ovariectomized rats; experiment: Yohimbine challenge, tail skin and core body temperature in OVEX rats; format: in vivo, rat; details: 5 mg/kg i.p.
Experimental: as §1
To objectively measure “hot flash” (assessed by tail temp) related activity in female OVEX rats, magnetically activated radiotelemetry probes (dimensions: 3.5 cc volume with 0.05° C. resolution) were implanted subcutaneously under the skin on the back of rat. The probe has 2 leads, each with an ˜1 cm long temp sensor that can be implanted in the tail and into the abdominal cavity to respectively measure skin and core body temp (as well as general ambulatory activity) in freely moving rats for extended periods. Recently we used the dual thermistor probes and were able to replicate previous findings that tail temp decreases during active phase in sham-OVEX rats, but this decrease is blunted in OVEX rats (FIG. 4B).
as §2

[7] = listed as orexin 1 receptor antagonist
[8] = OVEX rats, 5 min 20% CO2, FIG. 6B

## CNC(=O)[C@@H](c1ccccc1)N1CCc2cc(OC)c(OC)cc2[C@@H]1CCc1ccc(C(F)(F)F)cc1 [Almorexant]
[1]
  safety and side effects in phase III trials: safe, have few side effects
ORX1 and ORX2 receptors
  mode of orexin receptor antagonism: competitive, dual ORX1 and ORX2 receptor antagonists

## N#CC(Cc1ccc(O)cc1)c1ccc(O)cc1 (stereo not drawn) [DPN, diarylpropionitrile]
OVEX'ed rats
  anxiety behaviors in the elevated plus maze (EPM) and open field tests (OFT): decreased anxiety behaviors
  block of the anxiety induced by OVEXing a female rat: block the anxiety

## C[C@]12CC[C@@H]3c4ccc(O)cc4CC[C@H]3[C@@H]1CC[C@@H]2O [E2, 17-β-estradiol]
OVEX'ed rats
  anxiety behaviors in the elevated plus maze (EPM) and open field tests (OFT): decreased anxiety behaviors
  block of the anxiety induced by OVEXing a female rat: block the anxiety

## Cc1ccc(-n2nccn2)c(C(=O)N2CCN(c3nc4cc(Cl)ccc4o3)CC[C@H]2C)c1 [MK4305]
[1]
  safety and side effects in phase III trials: safe, have few side effects
ORX1 and ORX2 receptors
  mode of orexin receptor antagonism: competitive, dual ORX1 and ORX2 receptor antagonists

## CCCc1c(-c2ccc(O)cc2)nn(-c2ccc(O)cc2)c1-c1ccc(O)cc1 [PPT, Tris(4-hydroxyphenyl)-4-propyl-1Hpyrazole]
OVEX'ed rats
  anxiety behaviors in the elevated plus maze (EPM) and open field tests (OFT): increase anxiety behaviors
  block of the anxiety induced by OVEXing a female rat: not

## Cc1nc2ccc(NC(=O)Nc3ccnc4cccnc34)cc2o1 [SB334867, 1-(2-methylbenzoxazol-6-yl)-3-[1,5]naphthyridin-4-yl urea]
[2]
  crossing of blood brain barrier: crosses blood brain barrier
  duration of central activity: > 4 h
panic-prone rats
  anxiety-like responses (social interaction duration) after sodium lactate: Blocks; also recorded: attenuated
  lactate induced increases in core body temperature: block; also recorded: attenuated
  lactate induced increases in heart rate: attenuated
panic-prone rats; [7]
  anxiety-like responses (social interaction duration) after sodium lactate: blocks
  lactate induced increases in core body temperature: blocks
  lactate induced increases in heart rate: blocks
[3]
  anxiety-like behavior (time spent in center of open field) in OVEX rats: reverses anxiogenic effects
[3]; listed as ORX 1 receptor antagonist
  anxiety-like behavior (time spent in center of open field) in OVEX rats: reverse the anxiogenic effects of OVEX
[4]
  BMI-evoked increase in blood pressure: significant attenuation
  BMI-evoked increase in core body temperature: significant attenuation
  BMI-evoked increase in heart rate: significant attenuation
[5]; [8]
  intensity of the hot flash (tail skin temperature) after 20% CO2: reduces the intensity
  onset of the hot flash (tail skin temperature) after 20% CO2: delays the onset
[5]; sham-OVEX controls
  baseline levels of tail temp in controls: reduced baseline levels of tail temp

## Cc1nnc2n1-c1ccc(Cl)cc1C(c1ccccc1)=NC2 [alprazolam]
panic-prone rats; alprazolam 3 mg/kg i.p., FIG. 1
  lactate-induced responses versus vehicle treated groups (Fisher's LSD, p<0.05): significant differences

## Clc1cccc(Cl)c1N=C1NCCN1 [clonidine]
Menopausal women; Freedman et al, 1990
  incidence of hot flashes in menopausal women: reduce the incidence

## CC/C(=C(\c1ccccc1)c1ccc(OCCN(C)C)cc1)c1ccccc1 [tamoxifen]
[3]; tamoxifen 10 mg/kg s.c., 3 days, adult female rats, FIG. 3A
  anxiety-like behavior (time spent in center of open field) compared to controls: increased anxiety-like behavior

## COC(=O)[C@@H]1[C@H]2C[C@H]3c4[nH]c5ccccc5c4CCN3C[C@@H]2CC[C@@H]1O [yohimbine]
ORX-ir neurons
  cellular responses (c-Fos induction) in ORX neurons: increase cellular activity in ORX neurons
[6]; female OVEX vs sham-OVEX rats, FIG. 5B
  tail skin temperature: rapidly increase tail skin temp in female OVEX, but not sham OVEX control rats
[6]; yohimbine challenge
  core body temp following tail skin temp increase: dramatic drop
Menopausal women; intravenous infusions, symptomatic, but not asymptomatic, menopausal women
  provocation of hot flashes: provokes
